Drawing on PubChem BioAssay (NCI), this text covers TGI for 45 molecules.

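These data come from cells grown in 96-well plates and exposed to compound for 48 hours at five concentrations. Definition used: TGI = concentration required for complete inhibition of growth.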

In one assay the test system is LOX IMVI melanoma. The experiment in a line: growth of human tumour cells (NCI), 48 h.
Consider `O=C1/C(=C/c2cccc(Br)c2)CCc2ccccc21`, for which the TGI worked out at 28.5 µM. On to `CNc1ncnc2c1ncn2C1C=CC(COS(N)(=O)=O)C1` (stereo not given), for which the TGI is above 100 µM. In the case of `CCOc1cc(NC(C)=O)ccc1C(=O)NN1C(=O)C(Cl)C1c1ccccc1` (stereo not given), the TGI came out at 3.55 µM. Turning to `COC1=C(OC)C(=O)C(Cc2c(Cl)nc3sc(C)cn23)=C(C)C1=O`, the TGI was 34.1 µM. Same read-out and setting: in the case of `Cc1ccc(S(=O)(=O)n2cc(-c3cc(C(F)(F)F)ccn3)c3cc(Br)ccc32)cc1` it was 92.2 µM; in that of `CCCCCCCCCCCCCCCCCCNc1ccn(C2OC(COP(=O)(O)OCC3OC(n4cc(F)c(=O)[nH]c4=O)CC3O)C(O)C2O)c(=O)n1` (stereo not given), 18.2 µM. Turning to `O=C(CN1CCCCC1)Nc1ccc2sc3ccccc3c(=O)c2n1`, the TGI is 26.4 µM. In the case of `CC(C)=CCC/C(C)=C/CC/C(C)=C/CC/C(C)=C/C=C/C=C(\C)CC/C=C(\C)CC/C=C(\C)CCC=C(C)C`, the TGI stood at 49.9 µM. Regarding `CCOC(=O)/C(C#N)=C\c1ccc(N(CCC(=O)O)CCC(=O)O)c(I)c1`, the TGI was above 10 µM. As to `CN(CCCCCl)P(=O)(OCc1ccc([N+](=O)[O-])o1)OC[C@H]1O[C@@H](n2cc(F)c(=O)[nH]c2=O)C[C@@H]1O` (stereo not given in full), the TGI is 12.9 µM. On the same count and under the same terms, for `CCOC(=O)P(=O)(O)c1ccc(N(C)Cc2ccccc2)cc1` the value was above 100 µM; for `O=C(NC1=NCC(CN2CCN(c3ccccc3)CC2)O1)Nc1ccccc1` (stereo not given), above 100 µM; for `CC(=O)C(=C(c1ccccc1)c1ccccc1)c1ccccc1`, above 100 µM. `CC1C2(C)OC(=N)C(C#N)(C(c3ccccc3)O2)C1(C#N)C#N` (stereo not given) displayed a TGI of 36.9 µM.

On to `[N-]=[N+]=Nc1ccccc1C(=O)N1C(=O)c2ccccc2C(=O)N(C(=O)c2ccccc2N=[N+]=[N-])c2ccccc21`, for which the TGI is above 100 µM.

In turn, `O=C1NC2ON=C(c3ccccc3)C2C2ON=C(c3ccccc3)N12` (stereo not given) had a TGI above 100 µM. In turn, `CCCCCCCCCCCCCCCCCCNC(=O)C(N)Cc1ccc(OCc2ccccc2)cn1` (stereo not given) returned a TGI of 41.2 µM. Molecule `Cc1ccc2c(c1)[nH]c(=S)n2/C=C1\C(=O)Oc2ccccc2C1=O` registered a TGI above 100 µM. The molecule `CC(C)Cn1cnc2c(NCC(C)O)nc3ccccc3c21` (stereo not given) came in with a TGI above 100 µM. On the same count and under the same terms, for `COC1(OC)c2no[n+]([O-])c2CCC1O` (stereo not given) the value was above 100 µM.

In the case of `OC1(c2cccs2)c2cccc(Cl)c2C(O)(c2cccs2)c2c(Cl)cccc21` (stereo not given), the TGI was above 100 µM. Turning to `CN(C)Nc1cc(=O)[nH]c(=O)[nH]1`, the TGI was above 100 µM. The molecule `C=CCNC(=O)NC(=O)CSC1=NNC2(C(=O)N1)c1ccccc1-c1ccccc12` had a TGI above 10 µM. For `O=c1c2c(oc3ccccc13)-c1ccccc1OC2`, the TGI was above 100 µM. With `C=CCOc1cccc(C2(O)c3ccccc3C3=NCCCN32)c1` (stereo not given), the TGI came out at 29.4 µM. In turn, `CCSc1[nH]c(NC(=S)NC(=O)c2ccccc2Cl)c(C(N)=O)c1C(N)=O` displayed a TGI above 10 µM. Same read-out and setting: for `O=C1CCCCC/C1=C\c1cccc(Cl)c1` the value was above 100 µM; for `COC(=O)C1(C(=O)OC)Cc2ccc(OC)cc2C2=C1C(=O)c1ccccc1C2=O`, 5.39 µM; for `CCc1c2c([nH]c(=S)c1C#N)CCC2`, above 100 µM. `O=C1/C(=C/c2cccc(F)c2)CCCc2ccccc21` came in with a TGI of 30.1 µM.

`C=CCN1C(=O)/C(=C/c2ccc(OC)cc2)N=C1SC/C=C/C`: the TGI was above 100 µM. In turn, `Clc1ccc(NCc2nnc(CCCCCCCCc3nnc(CNc4ccc(Cl)cc4)o3)o2)cc1` registered a TGI above 100 µM. The molecule `O=C(ON=C1c2ccccc2C(Br)C(Br)c2ccccc21)c1cc([N+](=O)[O-])cc([N+](=O)[O-])c1` (stereo not given) came in with a TGI of 28.8 µM.

For `O=C1C(Cl)C2(CC(/C=C/c3ccccc3Cl)=NN2c2cccc(S(=O)(=O)O)c2)N1c1nc2ccccc2s1` (stereo not given), the TGI stood at 27.4 µM. In turn, `Cc1nc2ccccc2n1COC(Cn1ccnc1)c1ccc(Cl)cc1Cl` (stereo not given) yielded a TGI above 100 µM. Consider `Cn1c2ccccc2c2c(-c3ccccc3)cc3c(c21)C(=O)C=CC3=O`, for which the TGI is above 10 µM. In the case of `Nc1ncnn2c(C3OC(CO)C(O)C3O)ccc12` (stereo not given), the TGI was 0.0463 µM.

`COCCOC(=O)c1c(C)n([O-])c2cc(Cl)c(Cl)cc2[n+]1=O` came in with a TGI of 40.8 µM. `O=C(CC(=O)N(C(=O)/C=C\c1ccccc1)c1ccc(Cl)cc1)N1N=C(c2ccccc2)C(N=Nc2cccc([N+](=O)[O-])c2)C1=O` (stereo not given): the TGI was above 100 µM. As for `Cc1cc(=O)[nH]c(-n2[nH]c(C)c(CCO)c2=O)n1`, the TGI was above 100 µM. As for `COc1ccc2[nH]cc(CCNC(=O)[C@H](Cc3ccccc3)NC(=O)[C@@H](NCC(F)(F)F)C(C)C)c2c1`, the TGI turned out to be 37.6 µM.

The molecule `CCOC(=O)c1cnc2oc3ccc(O)cc3c2c1C` returned a TGI above 100 µM. Still for that read-out and setting: in the case of `COC(=O)[C@@H]1CN(C(C)=O)C(=O)N1` it was above 100 µM; in that of `CCc1n[nH]c(=O)n1/N=C/c1c(O)ccc2ccccc12`, above 100 µM. Still for that read-out and setting: for `Cn1c(=O)c(Br)c(C=O)n(CCO[N+](=O)[O-])c1=O` the value was 5.51 µM.

A further assay deals with MDA-MB-231 breast. In words: growth of human tumour cells (NCI), 48 h.
As for `O=C1/C(=C/c2cccc(Br)c2)CCc2ccccc21`, the TGI worked out at 35.9 µM. Same read-out and setting: for `CCOc1cc(NC(C)=O)ccc1C(=O)NN1C(=O)C(Cl)C1c1ccccc1` (stereo not given) the value was 26.7 µM. As to `COC1=C(OC)C(=O)C(Cc2c(Cl)nc3sc(C)cn23)=C(C)C1=O`, the TGI came out at 41.8 µM. Molecule `Cc1ccc(S(=O)(=O)n2cc(-c3cc(C(F)(F)F)ccn3)c3cc(Br)ccc32)cc1` registered a TGI of 46.5 µM. Turning to `CCCCCCCCCCCCCCCCCCNc1ccn(C2OC(COP(=O)(O)OCC3OC(n4cc(F)c(=O)[nH]c4=O)CC3O)C(O)C2O)c(=O)n1` (stereo not given), the TGI is above 100 µM.

`O=C(CN1CCCCC1)Nc1ccc2sc3ccccc3c(=O)c2n1` came in with a TGI of 59.9 µM. Same read-out and setting: for `CC(C)=CCC/C(C)=C/CC/C(C)=C/CC/C(C)=C/C=C/C=C(\C)CC/C=C(\C)CC/C=C(\C)CCC=C(C)C` the value was above 100 µM. Still for that read-out and setting: in the case of `CCOC(=O)/C(C#N)=C\c1ccc(N(CCC(=O)O)CCC(=O)O)c(I)c1` it was above 10 µM; in that of `CN(CCCCCl)P(=O)(OCc1ccc([N+](=O)[O-])o1)OC[C@H]1O[C@@H](n2cc(F)c(=O)[nH]c2=O)C[C@@H]1O` (stereo not given in full), 34.2 µM.

In turn, `CCOC(=O)P(=O)(O)c1ccc(N(C)Cc2ccccc2)cc1` came in with a TGI above 100 µM.
